Assay results published in patent publication US10377774B2 (JINAN UNIVERSITY, priority 2013, dated 2019).
Marks after values point to notes of the source that are not given here.

Columns and labels:
[1] = test system: human melanoma cell line A375; experiment: MTT cell growth inhibition, A375; type: cell-based; conditions: A375, MTT assay, 72 h; read-out: IC50, growth of tumor cell line
From the text: (§3) Experimental method: Cell lines (human non-small-cell lung cancer cell line A549, human colon cancer cell line LOVO, human nasopharyngeal carcinoma cell line CNE-2, human liver cancer cell line HepG2, human cervical carcinoma cell line Hela, human breast cancer cell lines MCF-7 and MDA-MB-231, human gastric carcinoma cell line NCI-N87, human prostatic cancer cell lines PC-3 and DU145, human leukemia cell line K562, human melanoma cell line A375, human neuroblastoma cell line SH-SY5H, human promyelocytic leukemia cell line HL-60, 5-FU-resistant human hepatocellular carcinoma cell line BEL-7402/5-Fu, doxorubicin-resistant hepatocellular carcinoma cell line HepG2/ADM, doxorubicin-resistant human breast cancer cell lines MCF-7/ADR) at logarithmic phase were resuspended in RPMI 1640 medium (containing 10% fetal bovine serum, 100 U/mL penicillin-streptomycin). Then, 100 μL of cells (cell concentration was 5×10^5/mL) were seeded into 96 wells plate. After 24 h incubation at 37° C. with 5% CO2, tested compounds were added (the control group without compound) for an additional 72 h incubation. After that, 30 μL of MTT [3-(4,5-Dimethylthiazol-2-yl)-2,5-diphenyltetrazolium bromide] solution (5 mg/mL) was added into each well and incubated for another 4 h at 37° C. and then the formazan crystals were solubilized with 100 μL DMSO. Finally, absorbance of each well was determined at 570 nm by a microplate reader (Thermo).
(§4) The concentration required to inhibit cell growth by 50% (IC50) was calculated from survival curves.

[2] = test system: human promyelocytic leukemia cell line HL-60; experiment: MTT cell growth inhibition, HL-60; type: cell-based; conditions: HL-60, MTT assay, 72 h; read-out: IC50, growth of tumor cell line
From the text: as §3, §4

[3] = test system: human prostatic cancer cell line PC-3; experiment: MTT cell growth inhibition, PC-3; type: cell-based; conditions: PC-3, MTT assay, 72 h; read-out: IC50, growth of tumor cell line
[4] = test system: human prostatic cancer cell line DU145; experiment: MTT cell growth inhibition, DU-145; type: cell-based; conditions: DU-145, MTT assay, 72 h; read-out: IC50, growth of tumor cell line
From the text: as §3, §4

[5] = test system: doxorubicin-resistant hepatocellular carcinoma cell line HepG2/ADM; experiment: MTT cell growth inhibition, HepG2/ADM; type: cell-based, human; conditions: MTT assay, 72 h, read-out: IC50, growth of tumor cell line
LOVO xenografts = LOVO xenografts in nude mice; type: in vivo; conditions: LOVO xenograft nude mice
Procedure: (§1) Experimental method: The MDA-MB-231 cells at logarithmic phase were digested and washed twice with PBS. Then, 100 μL cells (1×10^7) were inoculated subcutaneously on the backs of female BALB/nu/nu mice. After tumors grew to 70˜100 mm^3, the mice were divided randomly into saline group (control group), vinca alkaloids groups (VLB, CCRB, CCFN, CCXJ) and vinca alkaloid derivatives groups (JJ-CCJ, BX-CCJ, JJ-CCRB, BX-CCRB, JJ-CCFN, BX-CCFN, JJ-CCXJ and BX-CCXJ), with six mice per group. 1 mg/kg drugs were injected intraperitoneally every two days, meanwhile body weight and tumor sizes were measured. Experiment was ended after 8 times of drug administration, then tumor and organs were stripped. Tumor volumes were measured using the following formula: V=½(ab^2), whereas a refers to the longest diameter and b is the shortest diameter.
(§2) Tumor xenograft models of HepG2, LOVO, K562 and HL-60 cell lines were performed as the method described above.

[6] = test system: 5-FU-resistant human hepatocellular carcinoma cell line BEL-7402/5-Fu; experiment: MTT cell growth inhibition, BEL-7402/5-Fu; type: cell-based; conditions: MTT assay, 72 h, read-out: IC50, growth of tumor cell line
[7] = test system: human breast cancer cell line MDA-MB-231; experiment: MTT cell growth inhibition, MDA-MB-231; type: cell-based; conditions: MDA-MB-231, MTT assay, 72 h; read-out: IC50, growth of tumor cell line
[8] = test system: human nasopharyngeal carcinoma cell line CNE-2; experiment: MTT cell growth inhibition, CNE-2; type: cell-based; conditions: CNE-2, MTT assay, 72 h; read-out: IC50, growth of tumor cell line
MDA-MB-231 xenografts = MDA-MB-231 xenografts in nude mice; type: in vivo, BALB/nu/nu mice; conditions: MDA-MB-231 xenograft nude mice
Procedure: as §1

HepG2 xenografts = HepG2 xenografts in nude mice; type: in vivo; conditions: HepG2 xenograft nude mice
Procedure: as §1, §2

[9] = test system: human breast cancer cell line MCF-7; experiment: MTT cell growth inhibition, MCF-7; type: cell-based; conditions: MCF-7, MTT assay, 72 h; read-out: IC50, growth of tumor cell line
[10] = test system: human umbilical vein endothelial cells HUVEC; experiment: MTT cytotoxicity on normal cells, HUVEC; conditions: read-out: IC50, cytotoxicity on normal cell line; HUVEC, MTT assay
[11] = test system: human non-small-cell lung cancer cell line A549; experiment: MTT cell growth inhibition, A549; type: cell-based; conditions: A549, MTT assay, 72 h; read-out: IC50, growth of tumor cell line
From the text: as §3, §4

[12] = test system: human cervical carcinoma cell line Hela; experiment: MTT cell growth inhibition, Hela; type: cell-based; conditions: MTT assay, 72 h, read-out: IC50, growth of tumor cell line
From the text: as §3, §4

[13] = test system: human liver cancer cell line HepG2; experiment: MTT cell growth inhibition, HepG2; type: cell-based; conditions: HepG2, MTT assay, 72 h; read-out: IC50, growth of tumor cell line
[14] = test system: human neuroblastoma cell line SH-SY5H; experiment: MTT cell growth inhibition, SH-SY5H; type: cell-based; conditions: MTT assay, 72 h, read-out: IC50, growth of tumor cell line
From the text: as §3, §4

HL-60 xenografts = HL-60 xenografts in nude mice; type: in vivo; conditions: HL-60 xenograft nude mice
Procedure: as §1, §2

[15] = test system: human normal liver cells LO2; experiment: MTT cytotoxicity on normal cells, LO2; conditions: read-out: IC50, cytotoxicity on normal cell line; LO2, MTT assay
K562 xenografts = K562 xenografts in nude mice; type: in vivo; conditions: K562 xenograft nude mice
Procedure: as §1, §2

Kunming mice = experiment: Acute toxicity test; type: in vivo; conditions: injected intraperitoneally
Procedure: Experimental method: Kunming mice were purchased from Guangdong Medical Experimental Animal Center, weighing 18-22 g, then randomly divided into several groups with 10 mice in each group. Different concentrations of VLB and vinca alkaloid dipeptide derivatives were injected intraperitoneally. Finally, the median lethal dose (LD50) was calculated according to the surviving animals.
LD50 was measured using the following formula:
LD50 (mg/kg)=The median lethal dose/body weight

[16] = test system: human colon cancer cell line LOVO; experiment: MTT cell growth inhibition, LOVO; type: cell-based; conditions: LOVO (FAPα positive), MTT assay, 72 h; read-out: IC50, growth of tumor cell line
[17] = test system: human leukemia cell line K562; experiment: MTT cell growth inhibition, K562; type: cell-based; conditions: K562, MTT assay, 72 h; read-out: IC50, growth of tumor cell line
[18] = test system: human gastric carcinoma cell line NCI-N87; experiment: MTT cell growth inhibition, NCI-N87; type: cell-based; conditions: NCI-N87, MTT assay, 72 h; read-out: IC50, growth of tumor cell line
[19] = 1 mg/kg i.p. every two days, 8 administrations

SMILES: CCC1(O)CC2CN(CCc3c([nH]c4ccccc34)C(C(=O)OC)(c3cc4c(cc3OC)N(C)C3C(O)(C(=O)NNC(=O)C5CCCN5C(=O)CNC(=O)OCc5ccccc5)C(O)C5(CC)C=CCN6CCC43C65)C2)C1 (stereo not drawn) [BX-CCJ, Z-GP-NHNH-Vinblastine]
- IC50 [1]: 0.0495 ± 0.00453 µM
- IC50 [2]: 0.0855 ± 0.00957 µM
- IC50 [3]: 0.0711 ± 0.00197 µM
- IC50 [4]: 0.0573 ± 0.00207 µM
- IC50 [5]: 0.146 ± 0.00547 µM
- Anti-tumor rate (%) (LOVO xenografts; 1 mg/kg): 85.02** %
- Body weight (g) Post-dose (LOVO xenografts; 1 mg/kg): 24.4 ± 1.6 g
- Tumor weight (LOVO xenografts; 1 mg/kg): 0.43 ± 0.38 g
- Body weight (g) Pre-dose (LOVO xenografts; before dosing): 23.8 ± 1.9 g
- IC50 [6]: 0.179 ± 0.00887 µM
- IC50 [7]: 0.0642 ± 0.00457 µM
- IC50 [8]: 0.0527 ± 0.00301 µM
- Anti-tumor rate (%) (MDA-MB-231 xenografts; [19]): 92.34** %
- Body weight (g) Post-dose (MDA-MB-231 xenografts; [19]): 21.2 ± 2.1 g
- Tumor weight (MDA-MB-231 xenografts; [19]): 0.20 ± 0.12 g
- Body weight (g) Pre-dose (MDA-MB-231 xenografts; before dosing): 19.8 ± 1.0 g
- Anti-tumor rate (%) (HepG2 xenografts; 1 mg/kg): 86.67** %
- Body weight (g) Post-dose (HepG2 xenografts; 1 mg/kg): 22.1 ± 1.3 g
- Tumor weight (HepG2 xenografts; 1 mg/kg): 0.34 ± 0.21 g
- Body weight (g) Pre-dose (HepG2 xenografts; before dosing): 22.0 ± 1.7 g
- IC50 [9]: 0.108 ± 0.00423 µM
- IC50 [10]: 0.129 ± 0.00134 µM
- IC50 [11]: 0.0621 ± 0.00387 µM
- IC50 [12]: 0.0568 ± 0.00308 µM
- IC50 [13]: 0.0468 ± 0.00117 µM
- IC50 [14]: 0.0598 ± 0.00642 µM
- Anti-tumor rate (%) (HL-60 xenografts; 1 mg/kg): 81.29** %
- Body weight (g) Post-dose (HL-60 xenografts; 1 mg/kg): 20.1 ± 1.0 g
- Tumor weight (HL-60 xenografts; 1 mg/kg): 0.41 ± 0.19 g
- Body weight (g) Pre-dose (HL-60 xenografts; before dosing): 18.8 ± 1.1 g
- IC50 [15]: 0.0963 ± 0.00111 µM
- Anti-tumor rate (%) (K562 xenografts; 1 mg/kg): 76.79** %
- Body weight (g) Post-dose (K562 xenografts; 1 mg/kg): 23.1 ± 1.4 g
- Tumor weight (K562 xenografts; 1 mg/kg): 0.39 ± 0.27 g
- Body weight (g) Pre-dose (K562 xenografts; before dosing): 22.3 ± 1.0 g
- LD50 (median lethal dose) (Kunming mice): 10 mg/kg
- IC50 [16]: 0.0448 ± 0.00815 µM
- IC50 [17]: 0.0117 ± 0.00304 µM
- IC50 [18]: 0.103 ± 0.00887 µM
